What was measured:
[1] = test system: SH-SY5Y; experiment: Percent increase against SH-SY5Y human neuroblastoma cell viability induced by hydrogen peroxide at 10 uM concentration; assay type: functional
[2] = test system: SH-SY5Y; experiment: Percent increase against SH-SY5Y human neuroblastoma cell viability induced by hydrogen peroxide at 2 uM concentration; assay type: functional
[3] = test system: SH-SY5Y; experiment: Percent increase against SH-SY5Y human neuroblastoma cell viability induced by hydrogen peroxide at 50 uM concentration; assay type: functional
[4] = Free radical scavenging activity of DPPH was determined

SMILES | Increase [1] [%] | Increase [2] [%] | Increase [3] [%] | IC50 [4] [µM]
O=c1cc(-c2ccc(O)cc2)oc2cc(O)cc(O)c12 [APIGENIN] | 52.4 | 24.6 | 63.7 | > 100
O=C1O[C@H]([C@@H](O)CO)C(O)=C1O [ASCORBIC ACID] | – | – | – | 26.5
O=c1cc(-c2ccccc2)oc2cc(O)cc(O)c12 [CHRYSIN] | – | – | – | > 100
O=c1cc(-c2ccc(O)c(O)c2)oc2cc(O)cc(O)c12 [LUTEOLIN] | 84 | 76.4 | 77.5 | 10.4
COc1c(O)cc(O)c2c(=O)cc(-c3ccccc3)oc12 [WOGONIN] | – | – | – | > 100

Reference: ChEMBL document CHEMBL1147567, “Neuroprotective effects of flavones on hydrogen peroxide-induced apoptosis in SH-SY5Y neuroblostoma cells” (Bioorg Med Chem Lett, 2004)
